The test system of series [1] is bile duct partial ligation model. Briefly: Cholestasis-caused hepatopathy model, bile duct partial ligation, IBAT inhibiting compounds, blood after 24 hours (Test Example 13). The series is classed as in vivo, rat. The conditions noted are these: blood 24 hours after administration, N = 3, average ± standard error. The procedure: “Cholestasis-Caused Hepatopathy” Model (Bile Duct Partial Ligation Model)
In this test example, the model of cholestasis-caused hepatopathy was tested according to the method described in Test Example 5.
That is, the abdomens of 8 to 10 weeks old SD (IGS) male rats were cut open under anesthesia with pentobarbital and partial ligation surgery of the bile duct was carried out. After the surgery, 200 mg/kg of bile acid and an IBAT inhibiting compound were forcibly orally administered to the rats (each n=3). As a control group, physiological saline […] was administered (n=3). To observe the effect of the partial ligation surgery, a sham group (the abdomen was cut open under anesthesia with pentobarbital but partial ligation surgery of the bile duct was not carried out) and an untreated group were established (each n=3). After 24 hours from the administration a blood sample was taken from the abdominal aorta and AST, ALT, and ALP in the blood were measured using the method described in Test Example 5.

In another series the test system is bile acid loaded model. Briefly: Cholestasis-caused hepatopathy model, bile acid loaded model, 4.5 days (Test Example 14). The series is classed as in vivo, rat. The conditions noted are these: administration period 4.5 days, N = 6, average ± standard error. As for the experimental part:
“Cholestasis-Caused Hepatopathy” Model (Bile Acid Loaded Model)
In this test example, the model of hepatopathy due to loading of bile acid was carried out similarly to the protocol B in Test Example 5. However, the administration period in this test example was changed to 4.5 days. […] Therefore, the compounds have proven to be useful as drugs for the treatment and prevention of cholestasis-caused hepatopathy, in particular as drugs for the treatment and prevention of primary biliary cirrhosis and primary sclerosing cholangitis. Moreover, the compounds of other examples of the present invention not shown in Tables 18 and 19 can be expected to have excellent ameliorating effects on cholestasis-caused hepatopathy.

A further series concerns Caco 2 cells. Nature of the series: Toxicity with respect to alimentary canal: cytotoxicity to Caco 2, LDH activity (Test Example 12). The conditions noted are these: LDH activity after 2 hours; for Toxicity (%) to Caco 2: relative to cytolytic agent = 100%. The series is classed as cell-based, human. As for the experimental part:
Toxicity With Respect to Alimentary Canal
To evaluate the toxicity of the compounds of the present invention to the alimentary canal, the cytotoxicity to Caco 2, which is a human originated small intestine epithelial cell line, was tested by referring to the method of Bestwick C S et al. [Biochimica et Biophysica Acta 1474: 47-55, 1999].
That is, Caco 2 cells (purchased from ATCC) were inoculated on a 96-well plate such that there were 10,000 cells/well [MEM-E medium, 10% FBS (Fetal Bovine Serum), 1% NEAA (Non Essential Amino Acid) solution, (both manufactured by GIBCO PHARMACEUTICAL COMPANY)]. After culturing for 48 hours, the test compounds were diluted with the culture medium and added to the respective wells. After 2 hours, 50 μl of the culture broth was collected and the LDH activity in the collected culture broth was measured by using an LDH activity measuring kit (CytoTox 96 Non-Radioactive Cytotoxicity Assay, manufactured by PROMEGA CORPORATION). Relative activities were calculated assuming the LDH activity as 100% when the Caco 2 cells were treated with the cytolytic agent and the obtained relative activities were taken as cytotoxicities to Caco 2 cell.

Series [2] has as its system Cholic acid-loaded rat model. Nature of the series: Bile acid-decreasing effect in portal vein of rats loaded with cholic acid (Test Example 2). The series is classed as in vivo. The conditions noted are these: portal vein blood after 2 hours. As for the experimental part:
Bile Acid-Decreasing Effect in Portal Vein of Rats Loaded With Cholic Acid
In this test example, the test for confirming the bile acid-decreasing effect in portal vein of cholic acid-loaded rats was carried out according to the method described in Pharmacology and Therapeutics [Jpn Pharmacol. Ther., Vol. 24 Supplement, 1996, 103 (S-577)-110 (S-584)].
That is, 7 to 9 weeks old SD (IGS) rats were starved on the day before the test and thereafter. […] After 2 hours from the administration, a sample of blood was taken from a portal vein and total serum bile acid level was measured to study the effect of the test compound (n=6). Further, as a control group, a group (n=6) loaded with cholic acid (200 mg/kg) only was prepared and the same test procedure was followed. A commercially available kit (trade name: SOTANJUSAN-TEST WAKO-(SOTANJUSAN=total bile acid), manufactured by WAKO PURE CHEMICAL […], LTD.) was used for the measurement of bile acid. Assuming the value of the control group, which is a group in which no test compound was used, as 100%, the rate of decrease (percentage (%) of decrease) of the bile acid level when a fixed amount of the test compound was used was determined.

Another series has as its target T1, human IBAT (Homo sapiens, UniProt Q12908).
T1 construct: expressed in transfected cells; host or cells: Cos 7
T1 sequence (Q12908 1-348): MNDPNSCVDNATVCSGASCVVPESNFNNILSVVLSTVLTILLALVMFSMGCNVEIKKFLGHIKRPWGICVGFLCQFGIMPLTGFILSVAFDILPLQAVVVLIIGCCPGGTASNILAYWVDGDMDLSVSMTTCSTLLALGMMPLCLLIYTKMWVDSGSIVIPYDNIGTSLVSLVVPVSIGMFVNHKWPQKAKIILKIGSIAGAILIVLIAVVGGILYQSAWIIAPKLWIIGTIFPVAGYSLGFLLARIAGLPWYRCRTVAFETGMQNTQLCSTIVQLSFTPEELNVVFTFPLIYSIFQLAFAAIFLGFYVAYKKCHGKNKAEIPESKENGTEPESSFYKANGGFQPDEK
Nature of the series: In vitro assay of temporarily expressed human IBAT transporter using Cos 7 cells (Test Example 8). Format: cell-based. The note with it: Cos 7 cells temporarily expressing human IBAT; [3H] taurocholate 8 μM, 37° C., 60 minutes. The method, boiled down: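 Cos 7 cells transiently transfected with human or rat IBAT cDNA, assayed one day later in Hank's buffer with 25 mM glucose, 10 mM HEPES (pH 7.4) plus compound. Uptake of 8 μM [^3H]taurocholate over 60 min at 37 °C, stopped with 1 mM taurocholate washes; lysate radioactivity by scintillation counting.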

Setting [3] is: 0.1 mg/kg oral with cholic acid 200 mg/kg, HCO-60 0.1%.
[4] abbreviates: 0.3 mg/kg oral with cholic acid 200 mg/kg, HCO-60 0.1%.

Each structure is given as a SMILES string.

As usually defined, the IC50 is the concentration that inhibits the measured activity by half. Lower therefore signals inhibition by little substance.

In series [1] (Table 17, 1 mg/kg oral), `CCCC[C@@]1(CC)CS(=O)(=O)c2cc(OC)c(OC)cc2[C@H](c2ccccc2)N1` (relative stereo) [Compound B, Trans-3-butyl-3-ethyl-2,3,4,5-tetrahydro-7,8-dimethoxy-5-phenyl-1,4-benzothiazepine-1,1-dioxide] gave an ALP of 1335 ± 116 IU/L, an ALT of 138 ± 54 IU/L and an AST of 261 ± 63 IU/L. In the series with bile acid loaded model (Table 19, 0.1 mg/kg), this compound came in with an ALT of 54 ± 6 IU/L and an AST of 110 ± 4 IU/L.

For the compound `CCCC[C@@]1(CC)CS(=O)(=O)c2ccccc2[C@H](c2ccccc2)N1` (relative stereo) [Compound C, Trans-3-butyl-3-ethyl-2,3,4,5-tetrahydro-5-phenyl-1,4-benzothiazepine-1,1-dioxide], in series [1] (Table 16, 10 mg/kg oral), the ALP is on record as 948 ± 208 IU/L, the ALT stood at 113 ± 44 IU/L and the AST is recorded as 313 ± 82 IU/L. Besides, in the series on bile acid loaded model (Table 18, 10 mg/kg), the ALT stood at 53 ± 6 IU/L and the AST was determined as 100 ± 2 IU/L.

For `CCCCC1(CCCC)CS(=O)(=O)c2ccc(N(C)C)cc2[C@H](c2cccc([N+](C)(C)C)c2)[C@@H]1O.[I-]` (relative stereo) [Compound D, Cis-[3-(3,3-dibutyl-7-dimethylamino-4-hydroxy-1,1-dioxo-2,3,4,5-tetrahydro-1-benzothiepin-5-yl)phenyl]trimethyl-ammonium iodide], in series [1] (Table 16, 10 mg/kg oral), the ALP was found to be 715 ± 24 IU/L, the ALT was 73 ± 17 IU/L and the AST came out at 275 ± 12 IU/L. In the series on bile acid loaded model (Table 18, 10 mg/kg), the ALT stood at 46 ± 4 IU/L and the AST is 100 ± 9 IU/L.

With `CCCCC1(CCCC)CS(=O)(=O)c2ccc(N(C)C)cc2C(c2ccc(OCc3ccc(C[N+]45CCN(CC4)CC5)cc3)cc2)N1.[Cl-]` (stereo not drawn) [Comparative Example 2, 1-{4-[4-(3,3-Dibutyl-7-dimethylamino-1,1-dioxo-2,3,4,5-tetrahydro-1,4-benzothiazepin-5-yl)phenoxymethyl]benzyl}-4-aza-1-azoniabicyclo[2.2.2]octane chloride], in the series with Caco 2 cells (in words), the “cytotoxicity to Caco 2 cells” value is on record as “showed cytotoxicity to small intestine epithelial cell line at low concentrations”. In series [1] (Table 17, 10 mg/kg oral), this compound registered an ALP of 1266 ± 160 IU/L, an ALT of 281 ± 103 IU/L and an AST of 547 ± 159 IU/L.

For the compound `CCCCC1(CCCC)CS(=O)(=O)c2ccc(N(C)C)cc2C(c2cccc(NC(=S)Nc3ccc(C[N+](C)(C)CCCC)cc3)c2)N1.[Br-]` (stereo not drawn) [Example 3409], the “Rate of decrease (%) of bile acid” value in series [2] (setting [3]) is reported as 28%. Inhibition against human IBAT was half-maximal at 0.045 µM (IC50). In addition, the “Toxicity (%) to Caco 2” value in the series with Caco 2 cells (3 μM), in the series with Caco 2 cells (10 μM) and in the series on Caco 2 cells (30 μM) was under 1% each time.

In the case of `CCCCC1(CCCC)CS(=O)(=O)c2ccc(N(C)C)cc2C(c2cccc(NC(=S)Nc3ccc(C[N+]4(Cc5ccccc5)CCC(CO)CC4)cc3)c2)N1.[Br-]` (stereo not drawn) [Example 3607], the “Rate of decrease (%) of bile acid” value in series [2] (setting [3]) amounted to 36%. The compound also had an IC50 against human IBAT of 0.041 µM. Also, the “Toxicity (%) to Caco 2” value in the series on Caco 2 cells (3 μM), in the series on Caco 2 cells (10 μM) and in the series on Caco 2 cells (30 μM) was under 1% in each case.

`CCCCC1(CCCC)CS(=O)(=O)c2ccc(N(C)C)cc2C(c2cccc(NC(=S)Nc3ccc(C[N+]4(Cc5ccccc5)CCC(CCO)CC4)cc3)c2)N1.[Br-]` (stereo not drawn) [Example 3608]: in series [2] (setting [3]), the “Rate of decrease (%) of bile acid” value stood at 43%. 0.059 µM corresponded to half-maximal inhibition at human IBAT (IC50). For the same compound, the “Toxicity (%) to Caco 2” value in the series with Caco 2 cells (3 μM), in the series on Caco 2 cells (10 μM) and in the series with Caco 2 cells (30 μM) was under 1% in each case.

As for `CCCCC1(CCCC)CS(=O)(=O)c2ccc(N(C)C)cc2C(c2cccc(NC(=S)Nc3ccc(C[n+]4ccc(CC)cc4)cc3)c2)N1.[Br-]` (stereo not drawn) [Example 3710], the “Rate of decrease (%) of bile acid” value in series [2] (setting [3]) stood at 20%. This compound came in with an IC50 against human IBAT of 0.052 µM. For the same compound, the “Toxicity (%) to Caco 2” value in the series on Caco 2 cells (3 μM), with Caco 2 cells (10 μM) and in the series on Caco 2 cells (30 μM) was under 1% throughout.

With `CCCCC1(CCCC)CS(=O)(=O)c2ccc(N(C)C)cc2C(c2cccc(NC(=S)Nc3ccc(C[n+]4cccc(CC#N)c4)cc3)c2)N1.[Br-]` (stereo not drawn) [Example 3759], the “Rate of decrease (%) of bile acid” value in series [2] (setting [4]) turned out to be 36%. Besides, the “Toxicity (%) to Caco 2” value with Caco 2 cells (3 μM), in the series with Caco 2 cells (10 μM) and in the series on Caco 2 cells (30 μM) was under 1% throughout.

Consider `CCCCC1(CCCC)CS(=O)(=O)c2ccc(N(C)C)cc2C(c2cccc(NC(=S)Nc3ccc(C[n+]4ccc5ccccc5c4)cc3)c2)N1.[Br-]` (stereo not drawn) [Example 3783], for which the “Rate of decrease (%) of bile acid” value in series [2] (setting [3]) is listed as 16%. Also, the IC50 at human IBAT amounted to 0.048 µM. Further, the “Toxicity (%) to Caco 2” value with Caco 2 cells (3 μM), with Caco 2 cells (10 μM) and with Caco 2 cells (30 μM) was under 1% throughout.

`CCCCC1(CCCC)CS(=O)(=O)c2ccc(N(C)C)cc2C(c2cccc(NC(=S)CCCCC[N+](C)(C)Cc3ccccc3)c2)N1` (stereo not drawn) [Example 3835]: the “Rate of decrease (%) of bile acid” value in series [2] (0.1 mg/kg oral with cholic acid 200 mg/kg, Tween 20 0.05%) came out at 23%. On human IBAT, the IC50 worked out at 0.043 µM. In addition, the “Toxicity (%) to Caco 2” value in the series on Caco 2 cells (3 μM), in the series with Caco 2 cells (10 μM) and in the series on Caco 2 cells (30 μM) was under 1% each time.

`CCCCC1(CCCC)CS(=O)(=O)c2ccc(N(C)C)cc2C(c2cccc(NC(=S)Nc3ccc(CC[N+](C)(C)Cc4ccccc4)cc3)c2)N1` (stereo not drawn) [Example 5043]: the “Rate of decrease (%) of bile acid” value in series [2] (setting [4]) worked out at 39%. The compound further returned a half-inhibitory concentration (IC50) against human IBAT of 0.062 µM. In addition, the “Toxicity (%) to Caco 2” value with Caco 2 cells (3 μM), in the series with Caco 2 cells (10 μM) and in the series on Caco 2 cells (30 μM) was under 1% each time.

Regarding `CCCCC1(CCCC)CS(=O)(=O)c2ccc(N(C)C)cc2C(c2cccc(NC(=S)Nc3ccc(CC[N+]45CCC(CC4)CC5)cc3)c2)N1` (stereo not drawn) [Example 5298], in series [2] (setting [4]), the “Rate of decrease (%) of bile acid” value is listed as 40%. At human IBAT, this compound yielded an IC50 of 0.076 µM. Also, the “Toxicity (%) to Caco 2” value in the series with Caco 2 cells (3 μM), in the series with Caco 2 cells (10 μM) and in the series on Caco 2 cells (30 μM) was under 1% in each case.

The values are drawn from US7803792B2, “Quaternary ammonium compounds” (Asahi Kasei Pharma Corporation, priority 2002, dated 2010).
